Test: Stability of cannabinoid compounds and Vitamin E components in Beverage 1 (AB White) by LCMSMS
Assay type: physicochemical

CC(=O)Oc1c(C)c(C)c2c(c1C)CCC(C)(CCC[C@H](C)CCC[C@H](C)CCCC(C)C)O2 (stereo partly drawn) [α-Tocopheryl acetate]
Stability of Vitamin Es in AB White (stored at 8° C., 0 days): 12.3 µg/mL
Stability of Vitamin Es in AB White (stored at 8° C., 1 days): 12.04 µg/mL
Stability of Vitamin Es in AB White (stored at 8° C., 2 days): 12.47 µg/mL
Stability of Vitamin Es in AB White (stored at 8° C., 3 days): 11.99 µg/mL
Stability of Vitamin Es in AB White (stored at 8° C., 5 days): 11.61 µg/mL
Stability of Vitamin Es in AB White (stored at 8° C., 8 days): 12.48 µg/mL
Stability of Vitamin Es in AB White (stored at 8° C., 9 days): 11.88 µg/mL
Stability of Vitamin Es in AB White (stored at 8° C., 10 days): 12.13 µg/mL
Stability of Vitamin Es in AB White (stored at 8° C., 11 days): 11.83 µg/mL
Stability of Vitamin Es in AB White (stored at 8° C., 12 days): 12.31 µg/mL
Stability of Vitamin Es in AB White (stored at 8° C., 15 days): 12.42 µg/mL
Stability of Vitamin Es in AB White (stored at 8° C., 16 days): 11.35 µg/mL
Stability of Vitamin Es in AB White (stored at 8° C., 17 days): 11.49 µg/mL
Stability of Vitamin Es in AB White (stored at 8° C., 18 days): 11.83 µg/mL
Stability of Vitamin Es in AB White (stored at 8° C., 19 days): 12.41 µg/mL
Stability of Vitamin Es in AB White (stored at 8° C., 22 days): 11.27 µg/mL
Stability of Vitamin Es in AB White (stored at 8° C., 23 days): 11.93 µg/mL
Stability of Vitamin Es in AB White (stored at 8° C., 24 days): 12.02 µg/mL
Stability of Vitamin Es in AB White (stored at 8° C., 25 days): 12.24 µg/mL
Stability of Vitamin Es in AB White (stored at 8° C., 26 days): 12.03 µg/mL
Stability of Vitamin Es in AB White (stored at 8° C., 29 days): 11.40 µg/mL
Stability of Vitamin Es in AB White (stored at 8° C., 30 days): 12.07 µg/mL
Stability of Vitamin Es in AB White (stored at 8° C., 60 days): 12.05 µg/mL
Stability of Vitamin Es in AB White (stored at 8° C., 90 days): 11.13 µg/mL
Stability of Vitamin Es in AB White (stored at 8° C., 120 days): 11.80 µg/mL
Stability of Vitamin Es in AB White (stored at 8° C., 150 days): 11.89 µg/mL
Stability of Vitamin Es in AB White (stored at 8° C., 180 days): 11.48 µg/mL
Stability of Vitamin Es in AB White (stored at 8° C., 210 days): 11.21 µg/mL
Stability of Vitamin Es in AB White (stored at 8° C., 240 days): 11.06 µg/mL
Stability of Vitamin Es in AB White (stored at 8° C., 270 days): 11.21 µg/mL
Stability of Vitamin Es in AB White (stored at 8° C., 300 days): 11.37 µg/mL
Stability of Vitamin Es in AB White (stored at 8° C., 330 days): 11.28 µg/mL
Stability of Vitamin Es in AB White (stored at 8° C., 360 days): 11.12 µg/mL
Stability of Vitamin Es in AB White (stored at 8° C., 390 days): 11.00 µg/mL
Stability of Vitamin Es in AB White (stored at 8° C., 420 days): 11.06 µg/mL
Stability of Vitamin Es in AB White (stored at 8° C., 450 days): 10.89 µg/mL
Stability of Vitamin Es in AB White (stored at 8° C., 480 days): 10.76 µg/mL
Stability of Vitamin Es in AB White (stored at 8° C., 510 days): 10.76 µg/mL
Stability of Vitamin Es in AB White (stored at 8° C., 540 days): 10.49 µg/mL
Stability of Vitamin Es in AB White (stored at 8° C., 570 days): 10.42 µg/mL
Stability of Vitamin Es in AB White (stored at 21-25° C., 0 days): 12.3 µg/mL
Stability of Vitamin Es in AB White (stored at 21-25° C., 1 days): 12.2 µg/mL
Stability of Vitamin Es in AB White (stored at 21-25° C., 2 days): 12.3 µg/mL
Stability of Vitamin Es in AB White (stored at 21-25° C., 3 days): 11.8 µg/mL
Stability of Vitamin Es in AB White (stored at 21-25° C., 5 days): 12.0 µg/mL
Stability of Vitamin Es in AB White (stored at 21-25° C., 8 days): 12.4 µg/mL
Stability of Vitamin Es in AB White (stored at 21-25° C., 9 days): 12.2 µg/mL
Stability of Vitamin Es in AB White (stored at 21-25° C., 10 days): 11.8 µg/mL
Stability of Vitamin Es in AB White (stored at 21-25° C., 11 days): 11.7 µg/mL
Stability of Vitamin Es in AB White (stored at 21-25° C., 12 days): 11.6 µg/mL
Stability of Vitamin Es in AB White (stored at 21-25° C., 15 days): 11.4 µg/mL
Stability of Vitamin Es in AB White (stored at 21-25° C., 16 days): 12.3 µg/mL
Stability of Vitamin Es in AB White (stored at 21-25° C., 17 days): 11.2 µg/mL
Stability of Vitamin Es in AB White (stored at 21-25° C., 18 days): 11.9 µg/mL
Stability of Vitamin Es in AB White (stored at 21-25° C., 19 days): 11.4 µg/mL
Stability of Vitamin Es in AB White (stored at 21-25° C., 22 days): 11.3 µg/mL
Stability of Vitamin Es in AB White (stored at 21-25° C., 23 days): 11.9 µg/mL
Stability of Vitamin Es in AB White (stored at 21-25° C., 24 days): 11.8 µg/mL
Stability of Vitamin Es in AB White (stored at 21-25° C., 25 days): 11.3 µg/mL
Stability of Vitamin Es in AB White (stored at 21-25° C., 26 days): 11.6 µg/mL
Stability of Vitamin Es in AB White (stored at 21-25° C., 29 days): 12.1 µg/mL
Stability of Vitamin Es in AB White (stored at 21-25° C., 30 days): 12.1 µg/mL
Stability of Vitamin Es in AB White (stored at 21-25° C., 60 days): 12.1 µg/mL
Stability of Vitamin Es in AB White (stored at 21-25° C., 90 days): 12.0 µg/mL
Stability of Vitamin Es in AB White (stored at 21-25° C., 120 days): 11.4 µg/mL
Stability of Vitamin Es in AB White (stored at 21-25° C., 150 days): 11.9 µg/mL
Stability of Vitamin Es in AB White (stored at 21-25° C., 180 days): 11.2 µg/mL
Stability of Vitamin Es in AB White (stored at 21-25° C., 210 days): 11.1 µg/mL
Stability of Vitamin Es in AB White (stored at 21-25° C., 240 days): 10.8 µg/mL
Stability of Vitamin Es in AB White (stored at 21-25° C., 270 days): 11.0 µg/mL
Stability of Vitamin Es in AB White (stored at 21-25° C., 300 days): 11.2 µg/mL
Stability of Vitamin Es in AB White (stored at 21-25° C., 330 days): 11.3 µg/mL
Stability of Vitamin Es in AB White (stored at 21-25° C., 360 days): 10.7 µg/mL
Stability of Vitamin Es in AB White (stored at 21-25° C., 390 days): 10.8 µg/mL
Stability of Vitamin Es in AB White (stored at 21-25° C., 420 days): 10.9 µg/mL
Stability of Vitamin Es in AB White (stored at 21-25° C., 450 days): 10.6 µg/mL
Stability of Vitamin Es in AB White (stored at 21-25° C., 480 days): 10.3 µg/mL
Stability of Vitamin Es in AB White (stored at 21-25° C., 510 days): 10.4 µg/mL
Stability of Vitamin Es in AB White (stored at 21-25° C., 540 days): 10.4 µg/mL
Stability of Vitamin Es in AB White (stored at 21-25° C., 570 days): 10.2 µg/mL

— US20260130395A1, “Water Dispersible Botanical Compositions” (Aquila Black Limited, priority 2021, published 2026)
